Data: ChEMBL document CHEMBL1667806, “Synthesis and evaluation of anti-tubercular activity of new dithiocarbamate sugar derivatives” (2011)
≈ marks a conversion by molar mass, not a printed value.

Columns and labels:
Assay type in all cases: functional
[1] = test system: Mycobacterium tuberculosis; assay: Antimycobacterial activity against RFP-resistant Mycobacterium tuberculosis isolate 8
[2] = test system: Mycobacterium tuberculosis; assay: Antimycobacterial activity against INH, RFP, SM, EB-resistant Mycobacterium tuberculosis isolate 13
[3] = test system: Mycobacterium tuberculosis; assay: Antimycobacterial activity against INH, RFP, EB-resistant Mycobacterium tuberculosis isolate 14
[4] = test system: Mycobacterium tuberculosis; assay: Antimycobacterial activity against INH, RFP, EB, KM, LVFX, SPFX, CPFX-resistant Mycobacterium tuberculosis isolate 5
[5] = test system: Mycobacterium tuberculosis; assay: Antimycobacterial activity against INH, RFP, EB, KM, LVFX, SPFX, CPFX-resistant Mycobacterium tuberculosis isolate 11
[6] = test system: Mycobacterium tuberculosis; assay: Antimycobacterial activity against INH, RFP, EB, LVFX, SPFX, CPFX-resistant Mycobacterium tuberculosis isolate 15
[7] = test system: Mycobacterium tuberculosis; assay: Antimycobacterial activity against INH, RFP, KM, LVFX, SPFX, CPFX-resistant Mycobacterium tuberculosis isolate 9
[8] = test system: Mycobacterium tuberculosis; assay: Antimycobacterial activity against INH, RFP-resistant Mycobacterium tuberculosis isolate 17
[9] = test system: Mycobacterium tuberculosis; assay: Antimycobacterial activity against INH, RFP, EB, LVFX, CPFX-resistant Mycobacterium tuberculosis isolate 4
[10] = test system: Mycobacterium tuberculosis; assay: Antimycobacterial activity against INH, RFP, SM, EB, PAS, LVFX-resistant Mycobacterium tuberculosis isolate 19
[11] = test system: Mycobacterium tuberculosis; assay: Antimycobacterial activity against INH, RFP, EB, LVFX, SPFX, CPFX-resistant Mycobacterium tuberculosis isolate 1
[12] = test system: Mycobacterium tuberculosis; assay: Antimycobacterial activity against RFP, EB-resistant Mycobacterium tuberculosis isolate 3
[13] = test system: Mycobacterium tuberculosis; assay: Antimycobacterial activity against RFP-resistant Mycobacterium tuberculosis isolate 10
[14] = test system: Mycobacterium tuberculosis; assay: Antimycobacterial activity against INH, RFP, SM, EB, PAS-resistant Mycobacterium tuberculosis isolate 18
[15] = test system: Mycobacterium tuberculosis; assay: Antimycobacterial activity against INH, RFP, ETH-resistant Mycobacterium tuberculosis isolate 20
[16] = test system: Mycobacterium tuberculosis; assay: Antimycobacterial activity against INH, RFP, EB, LVFX, SPFX, CPFX-resistant Mycobacterium tuberculosis isolate 2
[17] = test system: Mycobacterium tuberculosis; assay: Antimycobacterial activity against INH, RFP, EB-resistant Mycobacterium tuberculosis isolate 12
[18] = test system: Mycobacterium tuberculosis; assay: Antimycobacterial activity against INH, RFP, SM, EB, KM, PAS, EVM, LVFX-resistant Mycobacterium tuberculosis isolate 16
[19] = test system: Mycobacterium tuberculosis; assay: Antimycobacterial activity against INH, RFP, SM, EB, KM, LVFX, SPFX, CPFX-resistant Mycobacterium tuberculosis isolate 6
[20] = test system: Mycobacterium tuberculosis; assay: Antimycobacterial activity against RFP-resistant Mycobacterium tuberculosis isolate 7

## N.S=C(S)N1CCCC1 [PYRROLIDINE DITHIOCARBAMIC ACID, AMMONIUM SALT]
[1]
  MIC: 0.2 µg/mL
[2]
  MIC: 0.2 µg/mL
[3]
  MIC: 0.2 µg/mL
[4]
  MIC: 0.2 µg/mL
[5]
  MIC: 0.2 µg/mL
[6]
  MIC: 0.2 µg/mL
[7]
  MIC: 0.2 µg/mL
[8]
  MIC: 0.2 µg/mL
[9]
  MIC: 0.4 µg/mL
[10]
  MIC: 0.4 µg/mL
[11]
  MIC: 0.2 µg/mL
[12]
  MIC: 0.2 µg/mL
[13]
  MIC: 0.4 µg/mL
[14]
  MIC: 0.2 µg/mL
[15]
  MIC: 0.2 µg/mL
[16]
  MIC: 0.2 µg/mL
[17]
  MIC: 0.2 µg/mL
[18]
  MIC: 0.2 µg/mL
[19]
  MIC: 0.2 µg/mL
[20]
  MIC: 0.2 µg/mL

## CC(=O)N[C@@H]1[C@@H](O)[C@H](O)[C@@H](CO)O[C@H]1SC(=S)N1CCCC1
[1]
  MIC: 6.25 µg/mL (≈ 17.8 µM)
[2]
  MIC: 6.25 µg/mL (≈ 17.8 µM)
[3]
  MIC: 6.25 µg/mL (≈ 17.8 µM)
[4]
  MIC: 6.25 µg/mL (≈ 17.8 µM)
[5]
  MIC: 12.5 µg/mL (≈ 35.7 µM)
[6]
  MIC: 6.25 µg/mL (≈ 17.8 µM)
[7]
  MIC: 6.25 µg/mL (≈ 17.8 µM)
[8]
  MIC: 6.25 µg/mL (≈ 17.8 µM)
[9]
  MIC: 12.5 µg/mL (≈ 35.7 µM)
[10]
  MIC: 12.5 µg/mL (≈ 35.7 µM)
[11]
  MIC: 6.25 µg/mL (≈ 17.8 µM)
[12]
  MIC: 6.25 µg/mL (≈ 17.8 µM)
[13]
  MIC: 12.5 µg/mL (≈ 35.7 µM)
[14]
  MIC: 6.25 µg/mL (≈ 17.8 µM)
[15]
  MIC: 6.25 µg/mL (≈ 17.8 µM)
[16]
  MIC: 6.25 µg/mL (≈ 17.8 µM)
[17]
  MIC: 6.25 µg/mL (≈ 17.8 µM)
[18]
  MIC: 6.25 µg/mL (≈ 17.8 µM)
[19]
  MIC: 6.25 µg/mL (≈ 17.8 µM)
[20]
  MIC: 6.25 µg/mL (≈ 17.8 µM)
